Laboratory results reported in ChEMBL document CHEMBL1240315, “Allosteric inhibition of kinesin-5 modulates its processive directional motility” (Nat Chem Biol, 2006).
Activity calls are given as the source filed them. The calls are words filed in the database; no cut-off is given here.

How the values were obtained:
[1] = target: T1, Kinesin-like protein KIF11 (Homo sapiens) (UniProt P52732); assay: Binding affinity to recombinant Eg5-GFP in cell-free system assessed as Eg5-GFP movement along microtubules without directionality at 2 mM by kymograph analysis
T1 sequence (whole entry): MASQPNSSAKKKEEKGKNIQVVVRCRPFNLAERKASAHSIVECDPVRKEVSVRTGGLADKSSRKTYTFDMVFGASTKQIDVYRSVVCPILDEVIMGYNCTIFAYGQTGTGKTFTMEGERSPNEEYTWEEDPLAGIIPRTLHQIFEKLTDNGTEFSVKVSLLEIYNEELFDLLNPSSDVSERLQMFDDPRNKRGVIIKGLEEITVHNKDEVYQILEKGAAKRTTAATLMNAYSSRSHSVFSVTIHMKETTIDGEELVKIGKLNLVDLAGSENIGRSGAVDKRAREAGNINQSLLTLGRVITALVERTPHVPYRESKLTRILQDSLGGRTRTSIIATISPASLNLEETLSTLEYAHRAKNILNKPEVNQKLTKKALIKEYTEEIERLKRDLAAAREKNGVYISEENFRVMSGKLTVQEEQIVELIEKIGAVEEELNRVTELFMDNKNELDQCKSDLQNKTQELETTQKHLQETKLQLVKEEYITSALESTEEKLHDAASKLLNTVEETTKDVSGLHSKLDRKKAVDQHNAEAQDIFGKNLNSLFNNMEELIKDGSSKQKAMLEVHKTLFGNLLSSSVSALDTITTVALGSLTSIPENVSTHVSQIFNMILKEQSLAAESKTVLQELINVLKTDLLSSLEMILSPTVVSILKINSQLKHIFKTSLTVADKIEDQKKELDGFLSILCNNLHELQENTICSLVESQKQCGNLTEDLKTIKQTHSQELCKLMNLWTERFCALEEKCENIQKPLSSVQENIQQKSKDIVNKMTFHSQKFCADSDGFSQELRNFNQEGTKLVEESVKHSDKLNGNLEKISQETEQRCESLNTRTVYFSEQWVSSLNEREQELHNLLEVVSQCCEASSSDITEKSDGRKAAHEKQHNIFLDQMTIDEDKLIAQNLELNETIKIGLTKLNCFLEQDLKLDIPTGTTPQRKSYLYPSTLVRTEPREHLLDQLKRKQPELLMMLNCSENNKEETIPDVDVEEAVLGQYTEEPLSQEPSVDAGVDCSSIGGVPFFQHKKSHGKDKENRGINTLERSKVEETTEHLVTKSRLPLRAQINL

[2] = target: T1, Kinesin-like protein KIF11 (Homo sapiens); assay: Binding affinity to recombinant Eg5-GFP in cell-free system assessed as Eg5-GFP movement along microtubules without directionality at 2 mM by mean square displacement analysis
[3] = target: T1, Kinesin-like protein KIF11 (Homo sapiens); conditions: 25 uM
Description: Inhibition of recombinant Eg5-GFP in cell-free system assessed as Eg5 motility speed on microtubule at 25 uM by mean square displacement analysis in presence of 2 mM ATP

[4] = target: T1, Kinesin-like protein KIF11 (Homo sapiens); conditions: 100 uM
Description: Inhibition of recombinant Eg5-GFP in cell-free system assessed as Eg5 motility speed on microtubule at 100 uM by mean square displacement analysis in presence of 2 mM ATP

[5] = target: T1, Kinesin-like protein KIF11 (Homo sapiens); conditions: 100 uM; remark: listed apart in the source
Description: Inhibition of recombinant Eg5-GFP in cell-free system assessed as reduction of Eg5 motility speed on microtubule at 100 uM by kymograph analysis

[6] = target: T1, Kinesin-like protein KIF11 (Homo sapiens); conditions: 100 uM; remark: listed apart in the source
Description: Inhibition of recombinant Eg5-GFP in cell-free system assessed as reduction in mean duration of Eg5-GFP-microtubule interaction at 100 uM by kymograph analysis

[7] = target: T1, Kinesin-like protein KIF11 (Homo sapiens); conditions: 100 uM; remark: listed apart in the source
Description: Inhibition of recombinant Eg5-GFP in cell-free system assessed as Eg5-GFP movement along microtubules without directionality at 100 uM by mean square displacement analysis in presence of 2 mM ADP

Compound	Activity (nanometer2/sec) [1]	Activity (nanometer2/sec) [2]	Activity (nanometer2/sec) [3]	Activity (nanometer2/sec) [4]	inhibition [5]	inhibition [6]	Activity (nanometer2/sec) [7]
Nc1ncnc2c1ncn2[C@@H]1O[C@H](COP(=O)(O)OP(=O)(O)O)[C@@H](O)[C@H]1O	4	771	–	–	–	–	–
CCOC(=O)C1=C(C)NC(=S)NC1c1cccc(O)c1 (configuration not stated)	–	–	1460	2140	inactive	inactive	3820
